Reference: paper PMC4772116 (Scientific Reports, 2016)

What was measured:
Ac-AChBP = Ac-AChBP (Aplysia californica, UniProt Q8WSF8); test: biochemical; assay type: binding
human α3β2 nAChR = human α3β2 nAChR (Homo sapiens, UniProt P17787+P32297); test: cell-based; assay type: cell-based
Ls-AChBP = Ls-AChBP (Lymnaea stagnalis, UniProt P58154); test: biochemical; assay type: binding
Ls-AChBP, sequence (P58154 20-229 limits assumed): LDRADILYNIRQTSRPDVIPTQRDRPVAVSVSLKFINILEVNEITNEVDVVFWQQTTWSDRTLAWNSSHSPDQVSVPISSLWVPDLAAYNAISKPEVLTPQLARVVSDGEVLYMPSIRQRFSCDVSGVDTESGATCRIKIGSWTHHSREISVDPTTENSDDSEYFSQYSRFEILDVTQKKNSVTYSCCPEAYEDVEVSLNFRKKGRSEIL

human α3β2 nAChR, sequence (P32297 32-505 limits assumed): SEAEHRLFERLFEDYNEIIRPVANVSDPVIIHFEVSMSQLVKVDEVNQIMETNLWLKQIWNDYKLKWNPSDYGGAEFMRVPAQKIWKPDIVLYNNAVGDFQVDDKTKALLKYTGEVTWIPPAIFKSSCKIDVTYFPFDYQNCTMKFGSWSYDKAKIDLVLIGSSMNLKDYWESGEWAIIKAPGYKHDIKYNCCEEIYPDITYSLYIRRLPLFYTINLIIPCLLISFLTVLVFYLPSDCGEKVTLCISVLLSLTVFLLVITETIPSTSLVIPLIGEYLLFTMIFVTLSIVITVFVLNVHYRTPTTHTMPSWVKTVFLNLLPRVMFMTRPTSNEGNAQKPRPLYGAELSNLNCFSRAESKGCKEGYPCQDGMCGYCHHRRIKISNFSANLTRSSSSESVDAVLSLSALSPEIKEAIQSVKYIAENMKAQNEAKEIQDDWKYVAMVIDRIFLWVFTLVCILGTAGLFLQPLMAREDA
human α3β2 nAChR, sequence (P17787 26-502 limits assumed): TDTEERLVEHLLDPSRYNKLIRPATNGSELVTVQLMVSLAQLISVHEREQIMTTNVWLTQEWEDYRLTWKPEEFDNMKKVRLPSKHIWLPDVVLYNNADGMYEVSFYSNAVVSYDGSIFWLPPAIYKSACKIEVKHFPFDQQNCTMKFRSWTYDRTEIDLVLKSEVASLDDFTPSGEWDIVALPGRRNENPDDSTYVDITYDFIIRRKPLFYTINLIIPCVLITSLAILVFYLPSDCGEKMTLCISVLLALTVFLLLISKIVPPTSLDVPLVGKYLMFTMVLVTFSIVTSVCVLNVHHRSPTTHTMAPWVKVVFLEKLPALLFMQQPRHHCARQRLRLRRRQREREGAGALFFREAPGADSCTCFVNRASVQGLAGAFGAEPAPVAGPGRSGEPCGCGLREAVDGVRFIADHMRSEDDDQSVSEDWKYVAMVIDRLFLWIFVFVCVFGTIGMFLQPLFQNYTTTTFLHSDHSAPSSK
Ac-AChBP, sequence (Q8WSF8 20-236 limits assumed): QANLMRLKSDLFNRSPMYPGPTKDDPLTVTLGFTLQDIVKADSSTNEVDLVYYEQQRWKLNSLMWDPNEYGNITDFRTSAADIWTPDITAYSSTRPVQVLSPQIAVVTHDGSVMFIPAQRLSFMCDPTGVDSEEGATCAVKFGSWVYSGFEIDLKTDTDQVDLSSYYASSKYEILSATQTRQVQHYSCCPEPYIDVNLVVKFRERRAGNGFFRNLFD

## CC[C@H](C)[C@@H]1NC(=O)[C@H](Cc2cnc[nH]2)NC(=O)[C@H](CCC(N)=O)NC(=O)[C@H](CC(N)=O)NC(=O)[C@H](CC(N)=O)NC(=O)CNC(=O)[C@H](C)NC(=O)[C@@H]2CSSC[C@H](NC(=O)CN)C(=O)N[C@@H](CSSC[C@@H](C(N)=O)NC1=O)C(=O)N[C@@H](CO)C(=O)N[C@@H](Cc1cnc[nH]1)C(=O)N1CCC[C@H]1C(=O)N[C@@H](C)C(=O)N2 [GIC, α-conotoxin GIC]
Ac-AChBP
  IC50: 29 ± 2 nM
Human α3β2 nAChR
  IC50: 1.13 nM
Ls-AChBP
  Ki: 220 ± 10 nM
